Source: PMC10707982, “Solubility and Thermodynamics Data of Cabozantinib Malate in Various Aqueous Solutions of Dimethyl Sulfoxide at Different Temperatures” (Molecules, 2023)

Tests used:
[1] = Shake flask solubility of CBZM in DMSO aqueous solutions and pure solvents; assay type: physicochemical; details: for Experimental mole fraction solubility (xe): 101.1 kPa
Method: A digital analytical balance (Mettler Toledo, Greifensee, Switzerland) with a sensitivity of 0.10 mg was used to measure the mass of each cosolvent mixture. A series of DMSO aqueous solutions (m = 0.10–0.90), were investigated. Three replications of each cosolvent mixture were taken. CBZM’s solubility values in numerous DMSO aqueous solutions (m = 0.0–1.0) and pure solvents were determined utilizing a shake flask methodology at five distinct temperature and fixed atmospheric pressure. Essentially, extra CBZM crystals were mixed with known amounts of each cosolvent mixture and neat solvents in triplicates. All the mixtures were vortexed for about 5 min. To achieve equilibrium, the resulting mixes were transferred to a WiseBath WSB Shaking Water Bath (Model WSB-18/30/-45, Daihan Scientific Co. Ltd., Seoul, Republic of Korea) for 72 h at 100 rpm for continuous shaking. After the samples reached equilibrium, they were removed from the shaker and centrifuged at 5000 rpm for 30 min at 298.2 K. The uncertainty in water bath temperature was recorded as 0.15 K. The equilibrium time of 72 h was optimized by preliminary experiments. Under preliminary experiments, CBZM solubility was measured at 24, 48, […], 72, and 96 h. […] After the supernatants were separated and diluted with mobile phase (if needed), the CBZM content was evaluated at 244 nm using a previously described HPLC technique. By using their standard formulae found in the literature, CBZM xe values were obtained.

[2] = Apparent thermodynamic analysis of CBZM dissolution (van't Hoff and Gibbs equations) and enthalpy–entropy compensation; assay type: physicochemical
Method: All of the CBZM’s apparent thermodynamic properties were determined at Thm. The reported equation was used to determine the Thm. Then, 308 K was calculated as the Thm for CBZM. Several thermodynamic parameters were obtained via an apparent thermodynamic analysis. These parameters were computed using the van’t Hoff and Gibbs equations. Using Equation (12) and Thm = 308 K, the ΔsolH^0 data for CBZM in cosolvent mixtures and pure solvents were calculated:(12) ∂ln xe/∂1/T−1/ThmP=−ΔsolH^0/R
The ΔsolH^0 for CBZM was obtained by the plotted van’t Hoff curves between ln xe of CBZM and 1/T−1/Thm .
Furthermore, at Thm = 308 K, the ΔsolG^0 for CBZM in cosolvent combinations and pure solvents was derived utilizing the Krug et al. approach by Equation (13):(13) ΔsolG^0=−RThm×intercept where the intercept values for CBZM in cosolvent combinations and pure solvents were calculated using the van’t Hoff plots depicted in Figure 5.
By Equation (14), the ΔsolS^0 for CBZM in cosolvent mixtures and neat solvents was derived:(14) ΔsolS^0=ΔsolH^0−ΔsolG^0/Thm
An enthalpy–entropy compensation analyses was performed, as previously described, to assess the solvation behavior of CBZM in cosolvent mixtures and neat solvents. Weighted curves of ΔsolH° vs. ΔsolG° were constructed at Thm = 308 K for this experiment.

[3] = design: method as in earlier work; details: all aqueous solutions, including H2O; cited from earlier work
[4] = design: method as in doi:10.1016/j.molliq.2020.115146; details: cited from earlier work
[5] = DMSO mass fraction m = 0.0, Thm = 308 K
[6] = DMSO mass fraction m = 0.1, Thm = 308 K
[7] = DMSO mass fraction m = 0.2, Thm = 308 K
[8] = DMSO mass fraction m = 0.3, Thm = 308 K
[9] = DMSO mass fraction m = 0.4, Thm = 308 K
[10] = DMSO mass fraction m = 0.5, Thm = 308 K
[11] = DMSO mass fraction m = 0.6, Thm = 308 K
[12] = DMSO mass fraction m = 0.7, Thm = 308 K
[13] = DMSO mass fraction m = 0.8, Thm = 308 K
[14] = DMSO mass fraction m = 0.9, Thm = 308 K
[15] = DMSO mass fraction m = 1.0, Thm = 308 K

Q: Which results are given for `COc1cc2nccc(Oc3ccc(NC(=O)C4(C(=O)Nc5ccc(F)cc5)CC4)cc3)c2cc1OC` [CBZM, Cabozantinib malate]?
A: Experimental mole fraction solubility (xe) ([1]; DMSO mass fraction m = 0.0, T = 298.2 K): 2.24 × 10^−7 mole fraction; Experimental mole fraction solubility (xe) ([1]; DMSO mass fraction m = 0.0, T = 303.2 K): 3.37 × 10^−7 mole fraction; Experimental mole fraction solubility (xe) ([1]; DMSO mass fraction m = 0.0, T = 308.2 K): 4.85 × 10^−7 mole fraction; Experimental mole fraction solubility (xe) ([1]; DMSO mass fraction m = 0.0, T = 313.2 K): 6.55 × 10^−7 mole fraction; Experimental mole fraction solubility (xe) ([1]; DMSO mass fraction m = 0.0, T = 318.2 K): 8.53 × 10^−7 mole fraction; Experimental mole fraction solubility (xe) ([1]; DMSO mass fraction m = 0.1, T = 298.2 K): 7.46 × 10^−7 mole fraction; Experimental mole fraction solubility (xe) ([1]; DMSO mass fraction m = 0.1, T = 303.2 K): 1.12 × 10^−6 mole fraction; Experimental mole fraction solubility (xe) ([1]; DMSO mass fraction m = 0.1, T = 308.2 K): 1.52 × 10^−6 mole fraction; Experimental mole fraction solubility (xe) ([1]; DMSO mass fraction m = 0.1, T = 313.2 K): 2.01 × 10^−6 mole fraction; Experimental mole fraction solubility (xe) ([1]; DMSO mass fraction m = 0.1, T = 318.2 K): 2.55 × 10^−6 mole fraction; Experimental mole fraction solubility (xe) ([1]; DMSO mass fraction m = 0.2, T = 298.2 K): 2.48 × 10^−6 mole fraction; Experimental mole fraction solubility (xe) ([1]; DMSO mass fraction m = 0.2, T = 303.2 K): 3.48 × 10^−6 mole fraction; Experimental mole fraction solubility (xe) ([1]; DMSO mass fraction m = 0.2, T = 308.2 K): 4.69 × 10^−6 mole fraction; Experimental mole fraction solubility (xe) ([1]; DMSO mass fraction m = 0.2, T = 313.2 K): 6.00 × 10^−6 mole fraction; Experimental mole fraction solubility (xe) ([1]; DMSO mass fraction m = 0.2, T = 318.2 K): 7.57 × 10^−6 mole fraction; Experimental mole fraction solubility (xe) ([1]; DMSO mass fraction m = 0.3, T = 298.2 K): 8.00 × 10^−6 mole fraction; Experimental mole fraction solubility (xe) ([1]; DMSO mass fraction m = 0.3, T = 303.2 K): 1.11 × 10^−5 mole fraction; Experimental mole fraction solubility (xe) ([1]; DMSO mass fraction m = 0.3, T = 308.2 K): 1.46 × 10^−5 mole fraction; Experimental mole fraction solubility (xe) ([1]; DMSO mass fraction m = 0.3, T = 313.2 K): 1.83 × 10^−5 mole fraction; Experimental mole fraction solubility (xe) ([1]; DMSO mass fraction m = 0.3, T = 318.2 K): 2.25 × 10^−5 mole fraction; Experimental mole fraction solubility (xe) ([1]; DMSO mass fraction m = 0.4, T = 298.2 K): 2.66 × 10^−5 mole fraction; Experimental mole fraction solubility (xe) ([1]; DMSO mass fraction m = 0.4, T = 303.2 K): 3.48 × 10^−5 mole fraction; Experimental mole fraction solubility (xe) ([1]; DMSO mass fraction m = 0.4, T = 308.2 K): 4.42 × 10^−5 mole fraction; Experimental mole fraction solubility (xe) ([1]; DMSO mass fraction m = 0.4, T = 313.2 K): 5.49 × 10^−5 mole fraction; Experimental mole fraction solubility (xe) ([1]; DMSO mass fraction m = 0.4, T = 318.2 K): 6.59 × 10^−5 mole fraction; Experimental mole fraction solubility (xe) ([1]; DMSO mass fraction m = 0.5, T = 298.2 K): 8.61 × 10^−5 mole fraction; Experimental mole fraction solubility (xe) ([1]; DMSO mass fraction m = 0.5, T = 303.2 K): 1.12 × 10^−4 mole fraction; Experimental mole fraction solubility (xe) ([1]; DMSO mass fraction m = 0.5, T = 308.2 K): 1.38 × 10^−4 mole fraction; Experimental mole fraction solubility (xe) ([1]; DMSO mass fraction m = 0.5, T = 313.2 K): 1.69 × 10^−4 mole fraction; Experimental mole fraction solubility (xe) ([1]; DMSO mass fraction m = 0.5, T = 318.2 K): 1.98 × 10^−4 mole fraction; Experimental mole fraction solubility (xe) ([1]; DMSO mass fraction m = 0.6, T = 303.2 K): 3.47 × 10^−4 mole fraction; Experimental mole fraction solubility (xe) ([1]; DMSO mass fraction m = 0.6, T = 308.2 K): 4.21 × 10^−4 mole fraction; Experimental mole fraction solubility (xe) ([1]; DMSO mass fraction m = 0.6, T = 313.2 K): 4.95 × 10^−4 mole fraction; Experimental mole fraction solubility (xe) ([1]; DMSO mass fraction m = 0.6, T = 318.2 K): 5.79 × 10^−4 mole fraction; Experimental mole fraction solubility (xe) ([1]; DMSO mass fraction m = 0.7, T = 298.2 K): 9.33 × 10^−4 mole fraction; Experimental mole fraction solubility (xe) ([1]; DMSO mass fraction m = 0.7, T = 303.2 K): 1.12 × 10^−3 mole fraction; Experimental mole fraction solubility (xe) ([1]; DMSO mass fraction m = 0.7, T = 308.2 K): 1.31 × 10^−3 mole fraction; Experimental mole fraction solubility (xe) ([1]; DMSO mass fraction m = 0.7, T = 313.2 K): 1.53 × 10^−3 mole fraction; Experimental mole fraction solubility (xe) ([1]; DMSO mass fraction m = 0.7, T = 318.2 K): 1.72 × 10^−3 mole fraction; Experimental mole fraction solubility (xe) ([1]; DMSO mass fraction m = 0.8, T = 298.2 K): 3.09 × 10^−3 mole fraction; Experimental mole fraction solubility (xe) ([1]; DMSO mass fraction m = 0.8, T = 303.2 K): 3.53 × 10^−3 mole fraction; Experimental mole fraction solubility (xe) ([1]; DMSO mass fraction m = 0.8, T = 308.2 K): 3.99 × 10^−3 mole fraction; Experimental mole fraction solubility (xe) ([1]; DMSO mass fraction m = 0.8, T = 313.2 K): 4.55 × 10^−3 mole fraction; Experimental mole fraction solubility (xe) ([1]; DMSO mass fraction m = 0.8, T = 318.2 K): 5.04 × 10^−3 mole fraction; Experimental mole fraction solubility (xe) ([1]; DMSO mass fraction m = 0.9, T = 298.2 K): 1.07 × 10^−2 mole fraction; Experimental mole fraction solubility (xe) ([1]; DMSO mass fraction m = 0.9, T = 303.2 K): 1.15 × 10^−2 mole fraction; Experimental mole fraction solubility (xe) ([1]; DMSO mass fraction m = 0.9, T = 308.2 K): 1.26 × 10^−2 mole fraction; Experimental mole fraction solubility (xe) ([1]; DMSO mass fraction m = 0.9, T = 313.2 K): 1.38 × 10^−2 mole fraction; Experimental mole fraction solubility (xe) ([1]; DMSO mass fraction m = 0.9, T = 318.2 K): 1.52 × 10^−2 mole fraction; Experimental mole fraction solubility (xe) ([1]; DMSO mass fraction m = 1.0, T = 298.2 K): 3.29 × 10^−2 mole fraction; Experimental mole fraction solubility (xe) ([1]; DMSO mass fraction m = 1.0, T = 303.2 K): 3.50 × 10^−2 mole fraction; Experimental mole fraction solubility (xe) ([1]; DMSO mass fraction m = 1.0, T = 308.2 K): 3.78 × 10^−2 mole fraction; Experimental mole fraction solubility (xe) ([1]; DMSO mass fraction m = 1.0, T = 313.2 K): 4.02 × 10^−2 mole fraction; Experimental mole fraction solubility (xe) ([1]; DMSO mass fraction m = 1.0, T = 318.2 K): 4.38 × 10^−2 mole fraction; Solubility classification in DMSO ([1]; neat DMSO, 298.2–318.2 K): freely soluble; Solubility classification in H2O ([1]; neat H2O, 298.2–318.2 K): practically insoluble; Apparent standard Gibbs energy ΔsolG^0 [2, 5]: 8.929 kcal/mol; Apparent standard enthalpy ΔsolH^0 [2, 5]: 12.6 kcal/mol; Apparent standard entropy ΔsolS^0 [2, 5]: 49.82 J mol^−1 K^−1; Apparent standard Gibbs energy ΔsolG^0 [2, 6]: 8.224 kcal/mol; Apparent standard enthalpy ΔsolH^0 [2, 6]: 11.48 kcal/mol; Apparent standard entropy ΔsolS^0 [2, 6]: 44.21 J mol^−1 K^−1; Apparent standard Gibbs energy ΔsolG^0 [2, 7]: 7.533 kcal/mol; Apparent standard enthalpy ΔsolH^0 [2, 7]: 10.47 kcal/mol; Apparent standard entropy ΔsolS^0 [2, 7]: 39.92 J mol^−1 K^−1; Apparent standard Gibbs energy ΔsolG^0 [2, 8]: 6.84 kcal/mol; Apparent standard enthalpy ΔsolH^0 [2, 8]: 9.696 kcal/mol; Apparent standard entropy ΔsolS^0 [2, 8]: 38.80 J mol^−1 K^−1; Apparent standard Gibbs energy ΔsolG^0 [2, 9]: 6.152 kcal/mol; Apparent standard enthalpy ΔsolH^0 [2, 9]: 8.559 kcal/mol; Apparent standard entropy ΔsolS^0 [2, 9]: 32.71 J mol^−1 K^−1; Apparent standard Gibbs energy ΔsolG^0 [2, 10]: 5.452 kcal/mol; Apparent standard enthalpy ΔsolH^0 [2, 10]: 7.835 kcal/mol; Apparent standard entropy ΔsolS^0 [2, 10]: 32.35 J mol^−1 K^−1; Apparent standard Gibbs energy ΔsolG^0 [2, 11]: 4.768 kcal/mol; Apparent standard enthalpy ΔsolH^0 [2, 11]: 6.697 kcal/mol; Apparent standard entropy ΔsolS^0 [2, 11]: 26.18 J mol^−1 K^−1; Apparent standard Gibbs energy ΔsolG^0 [2, 12]: 4.07 kcal/mol; Apparent standard enthalpy ΔsolH^0 [2, 12]: 5.779 kcal/mol; Apparent standard entropy ΔsolS^0 [2, 12]: 23.21 J mol^−1 K^−1; Apparent standard Gibbs energy ΔsolG^0 [2, 13]: 3.382 kcal/mol; Apparent standard enthalpy ΔsolH^0 [2, 13]: 4.656 kcal/mol; Apparent standard entropy ΔsolS^0 [2, 13]: 17.30 J mol^−1 K^−1; Apparent standard Gibbs energy ΔsolG^0 [2, 14]: 2.674 kcal/mol; Apparent standard entropy ΔsolS^0 [2, 14]: 9.05 J mol^−1 K^−1; Apparent standard Gibbs energy ΔsolG^0 [2, 15]: 2 kcal/mol; Apparent standard enthalpy ΔsolH^0 [2, 15]: 2.732 kcal/mol; Apparent standard entropy ΔsolS^0 [2, 15]: 9.91 J mol^−1 K^−1; Solvation-driven process (enthalpy–entropy compensation) ([2]; all cosolvent combinations and pure solvents, Thm = 308 K): enthalpy-driven; Nature of dissolution ([2]; all cosolvent combinations, including neat solvents): endothermic and entropy-driven; Solubility in aqueous solutions [3]: nearly insoluble; Total HSP (δt) [4]: 25.50 MPa^1/2
